Read-outs that look alike come from different tables or passages of the source.
Key:
[1] = design: method as in earlier work; details: pH 7.40, cited from earlier work
[2] = pH 7.4, cited from earlier work
HSA site I (Trp-214) = target: T1, HSA site I (Trp-214) (Homo sapiens, UniProt P02768); design: method as in PMID 32500882; details: cited from earlier work
T1 construct: purchased Sigma-Aldrich (Darmstadt, Germany) A8763

HSA site II = target: T2, HSA site II (Homo sapiens, UniProt P02768); design: method as in PMID 32500882; details: cited from earlier work
T2 construct: purchased Sigma-Aldrich (Darmstadt, Germany) A8763

Colo205 = system: Colo205; design: method as in PMID 32500882; details: 72 h exposure; cited from earlier work
Colo320 = system: Colo320; design: method as in PMID 32500882; details: cited from earlier work; for IC50: 72 h exposure; for Selectivity ratio IC50 (Colo205)/IC50 (Colo320): calculated from IC50 values taken from ref 12
[3] = cited from earlier work
[4] = Proton dissociation constants (pKa) of the ligand by pH-potentiometric, UV-vis and 1H NMR titrations; type: physicochemical; details: pH 7.4
Experimental: Characterization of the protonation/deprotonation equilibrium processes of a bioactive molecule is important to reveal its actual chemical form and charge at a given pH. The proton dissociation constant (Ka) is a key physico-chemical parameter since it has an impact on many biopharmaceutical characteristics such as lipophilicity, water solubility, and albumin binding, which in turn directly influences pharmacokinetics. The pKa values of the protonated HQNO2-L-Pro were determined by pH-potentiometric, UV-vis (Figure 1a), and ^1H NMR spectroscopic titrations (Table 1).
The pH-potentiometric measurements were carried out at 25.0 ± 0.1 °C in water in the pH range between 2.0 and 11.5 at a constant ionic strength of 0.2 M KNO3. The titrations were performed in a carbonate-free KOH solution (0.20 or 0.10 M). The exact concentrations of HNO3, HCl, and KOH solutions were always determined by pH-potentiometric titrations. An Orion 710A pH-meter equipped with a Metrohm combined electrode (type 6.0234.100) and a Metrohm 665 Dosimat burette were used for the measurements. […] The average water ionization constant (pKw) was determined as 13.76 ± 0.01, which is in good agreement with the literature data. In the case of the titrations in 30% (v/v) DMSO/H2O, the calibration of the pH-potentiometric system was conducted as in our former works. Samples were degassed by bubbling purified argon through them for about 10 min prior to the measurements, and the inert gas was also passed over the solutions during the titrations. Stoichiometry of the species and their equilibrium constants were obtained similarly to that performed in our previous works, with the use of computer program Hyperquad2013 [50].
An Agilent Cary 8454 diode array spectrophotometer (Santa Clara, CA, USA) was used to obtain UV-vis spectra in the wavelength range 200–1000 nm, while spectra were recorded for the Fe(II)-containing samples using an Avantes (Avantes B.V., Apeldoorn, The Nederlands) AvaSpec-ULS2048CL-EVO spectrometer with an AvaLight-DHc light source and FDP-7UVIR200-2-VAR transmission dip probe. The titrations for the Fe(II)-containing samples were performed in a laboratory glove box (GP(Campus), Jacomex) (O2 content ≤ 1 ppm). The path length (ℓ) was 1 cm in most cases (the actual ℓ is always indicated in the legends of the figures). The concentrations of the ligands and complexes were between 40 and 200 µM, and 0.2 M KNO3 for the organometallic complexes or 0.1 M KCl for the Fe(II/III), Cu(II), and Zn(II) complexes were used to adjust the constant ionic strength. For HSA containing samples, complex concentrations were 50 µM, and 0.5, and 2 equiv. biomolecules were added for kinetic studies, respectively. For HSA model containing samples, complex concentrations were 50 µM, and the model concentrations were 0–150 µM and 0–500 µM, respectively, and the pH was 7.4 (PBS’). Spectra were always background and baseline corrected. The computer program HypSpec was used to obtain stability constants. Hydrolysis constants of the Fe(III), Fe(II), RuCym, and RhCp* species were included in the speciation models (see Table S4 with the data taken from References).
The Bruker Avance III HD Ascend 500 Plus instrument (Billerica, MA, USA) was used for NMR studies. ^1H NMR spectroscopic measurements were carried out with a WATERGATE water suppression pulse scheme in the presence of 10% (v/v) D2O/H2O in most cases. DSS internal standard was added to samples to obtain reference peaks. ^1H NMR titrations were carried out for the ligand alone, and for the organometallic complexes in the presence of 0.2 M KNO3. With the AHA and FHA model peptides, the measurements were performed at pH 7.4 (PBS’) at 0.5 or 1 mM metal complex concentrations, and 1:1, 1:2 or 2:1 peptide-to-metal complex ratios were applied. NMR titrations were also performed for the Zn(II)-ligand systems using 0.1 M KCl ionic strength. […]

[5] = Aqueous solubility at physiological pH (S7.4); type: physicochemical; details: pH 7.4
MES-SA = test: In vitro cytotoxicity, MES-SA cells (fluorescent protein readout); type: cell-based, human; details: 144 h exposure
Source text: (§1) Cell lines: all cell culture reagents were obtained from Sigma-Aldrich; plasticware was purchased from Sarstedt (Nümbrecht, Germany); Human colon Colo205 (chemo-sensitive, ATCC-CCL-222) and Colo320 (Pgp/MDR1-expressing, doxorubicin-resistant, ATCC-CCL-220.1) adenocarcinoma cell lines were purchased from LGC Promochem, Teddington, UK; MES-SA and MES-SA/Dx5 uterine sarcoma cell lines were obtained from ATCC, where they were characterized by DNA fingerprinting. The expression of the Pgp efflux pump of MES-SA/Dx5 was proven by Western blot analysis in our former report, and was also reported for the Colo320 cells. The MES-SA and MES-SA/Dx5 cells used in this study were previously engineered to express the fluorescent proteins mCherry and eGFP, respectively, by lentiviral transduction.
(§2) MES-SA cell lines were maintained in DMEM, supplemented with 10% fetal bovine serum, 5 mmol/L glutamine, and 50 units/mL penicillin and streptomycin. Cells were tested and resulted negative for mycoplasma contamination with the MycoAlert mycoplasma detection Kit (Lonza Group, Basel, Switzerland). One week prior to the cytotoxicity assays, Dx5 eGFP cells were selected in 500 nM doxorubicin for one passage to ensure the overexpression of P-glycoprotein.
(§3) Cytotoxicity assays: The tested compounds were dissolved in PBS buffer to prepare 5 mM stock solutions, which were diluted in complete culture medium.
(§4) In the case of the MES-SA and MES-SA/Dx5 cells, cell suspensions of the fluorescent cell lines were pre-mixed in a 1:1 ratio and seeded in 20 µL medium in a density of 2500 cells/well (1250 cells/well each) in a 384-well plate. After an overnight incubation, a serial dilution of the compounds was added to the plate in a final volume of 60 µL. The P-gp inhibitor tariquidar was added to the cells 15 min prior to the test compounds. After 144 h of incubation, plates were measured for the fluorescent intensity of mCherry (EX/EM: 585 nm/610 nm) and eGFP (EX/EM: 485 nm/510 nm). Cell seeding, aspiration of medium, and addition of drugs were performed by a Hamilton StarLet automated liquid handling robot.
(§5) Inhibition of the cell growth (expressed as IC50: inhibitory concentration that reduces by 50% the growth of the cells exposed to the tested compounds) was determined from the sigmoid curve where 100 − ((ODsample − ODmedium control)/(ODcell control − ODmedium control)) × 100 values were plotted against the logarithm of compound concentrations. Curves for the data obtained on Colo205 and Colo320 cells were fitted by GraphPad Prism software (2021, Graphpad Software, version 7.00, San Diego, CA, USA) using the sigmoidal dose–response model (comparing variable and fixed slopes). From the MES-SA cell data, the IC50 values were calculated by our custom program, written by J. Sessler in C#. The p values were calculated by Student’s t-test. The IC50 values were always obtained from at least three independent experiments.

MES-SA/Dx5 = test: In vitro cytotoxicity, MES-SA/Dx5 cells (fluorescent protein readout); type: cell-based, human
Source text: as §1, §2, §3, §4, §5

[6] = design: method as in PMID 32500882; details: cited from earlier work

T1 sequence (P02768 25-609): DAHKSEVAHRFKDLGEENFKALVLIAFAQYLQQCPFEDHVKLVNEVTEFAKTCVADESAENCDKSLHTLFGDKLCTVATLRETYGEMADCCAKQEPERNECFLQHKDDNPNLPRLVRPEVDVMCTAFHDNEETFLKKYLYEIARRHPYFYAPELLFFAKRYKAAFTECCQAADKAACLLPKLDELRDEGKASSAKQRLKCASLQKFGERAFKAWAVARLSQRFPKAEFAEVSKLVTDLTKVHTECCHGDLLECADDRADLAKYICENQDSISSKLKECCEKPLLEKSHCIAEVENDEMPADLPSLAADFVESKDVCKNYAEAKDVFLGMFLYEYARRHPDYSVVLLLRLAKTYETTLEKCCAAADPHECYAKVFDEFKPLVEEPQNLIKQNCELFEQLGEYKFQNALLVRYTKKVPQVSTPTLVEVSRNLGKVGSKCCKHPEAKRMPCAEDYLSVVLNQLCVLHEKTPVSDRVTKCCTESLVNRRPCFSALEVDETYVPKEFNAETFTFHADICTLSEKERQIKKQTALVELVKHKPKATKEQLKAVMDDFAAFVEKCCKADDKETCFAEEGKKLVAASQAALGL
T2 sequence (P02768 25-609): as above

Compound: Cc1c(C)c(C)[c-](C)c1C.O=C(O)[C@@H]1CCC[NH+]1Cc1cc(Cl)c2ccc[n+]3c2c1[O][Rh]3[Cl].[Cl-] [RhCp*-HQCl-L-Pro]
- log D7.4 ([1]; 100 mM chloride): +0.10 ± 0.01
- conditional stability constant logK' ([2]; calculated based on ref 12): 12.98
- quenching constant logKQ' (HSA site I (Trp-214)): 5.5
- DG marker displacement constant logKDG' (HSA site II): 5.6
- IC50 (Colo205): 26 ± 5 µM
- IC50 (Colo320): 10 ± 1 µM
- Selectivity ratio IC50 (Colo205)/IC50 (Colo320) (Colo320): 2.66

Compound: Oc1c(CN2CCCCC2)ccc2cccnc12 [7-(piperidin-1-ylmethyl)quinolin-8-ol]
- formal potential E'1/2 of the iron complexes [3]: +21 mV vs. NHE

Compound: Oc1cccc2cccnc12 [8-hydroxyquinoline]
- formal potential E'1/2 of the iron complexes [3]: −323 mV vs. NHE

Compound: O=C(O)[C@@H]1CCCN1Cc1cc(Cl)c2cccnc2c1O [HQCl-L-Pro, reference compound]
- fraction of negatively charged form [4]: 36.5%
- fraction of neutral form [4]: 63.5%
- solubility in water at physiological pH (S7.4) [5]: > 10 mM
- IC50 (MES-SA): 23 ± 4 µM
- IC50 (MES-SA/Dx5; 144 h exposure): 4.3 ± 0.1 µM
- Selectivity ratio IC50 (MES-SA)/IC50 (MES-SA/Dx5) (MES-SA/Dx5; calculated from IC50 values in Table 4): 5.41
- pKa (NProH+) [6]: > 11.5
- pKa (OH) [6]: 7.76
- log D7.4 ([1]; 4 mM chloride): +0.13 ± 0.09
- IC50 (Colo205): 23 ± 3 µM
- IC50 (Colo320): 9 ± 2 µM
- Selectivity ratio IC50 (Colo205)/IC50 (Colo320) (Colo320): 2.75

Compound: Cc1c(C)c(C)[c-](C)c1C.[Cl][Rh]1[O]c2cccc3ccc[n+]1c23 [RhCp*-HQ]
- conditional stability constant logK' ([2]; calculated based on ref 23): 12.76

Reference: publication PMC9820345, “Metal Complexes of a 5-Nitro-8-Hydroxyquinoline-Proline Hybrid with Enhanced Water Solubility Targeting Multidrug Resistant Cancer Cells” (International Journal of Molecular Sciences, 2022)
